{"source": "patent US10358449B2", "about": "“Xanthine derivative” (priority 2015, dated 2019)", "key": {"[1]": {"target": "humanized recombinant DPP-IV (Homo sapiens (Human), UniProt P27487)", "sequence (P27487 whole entry)": "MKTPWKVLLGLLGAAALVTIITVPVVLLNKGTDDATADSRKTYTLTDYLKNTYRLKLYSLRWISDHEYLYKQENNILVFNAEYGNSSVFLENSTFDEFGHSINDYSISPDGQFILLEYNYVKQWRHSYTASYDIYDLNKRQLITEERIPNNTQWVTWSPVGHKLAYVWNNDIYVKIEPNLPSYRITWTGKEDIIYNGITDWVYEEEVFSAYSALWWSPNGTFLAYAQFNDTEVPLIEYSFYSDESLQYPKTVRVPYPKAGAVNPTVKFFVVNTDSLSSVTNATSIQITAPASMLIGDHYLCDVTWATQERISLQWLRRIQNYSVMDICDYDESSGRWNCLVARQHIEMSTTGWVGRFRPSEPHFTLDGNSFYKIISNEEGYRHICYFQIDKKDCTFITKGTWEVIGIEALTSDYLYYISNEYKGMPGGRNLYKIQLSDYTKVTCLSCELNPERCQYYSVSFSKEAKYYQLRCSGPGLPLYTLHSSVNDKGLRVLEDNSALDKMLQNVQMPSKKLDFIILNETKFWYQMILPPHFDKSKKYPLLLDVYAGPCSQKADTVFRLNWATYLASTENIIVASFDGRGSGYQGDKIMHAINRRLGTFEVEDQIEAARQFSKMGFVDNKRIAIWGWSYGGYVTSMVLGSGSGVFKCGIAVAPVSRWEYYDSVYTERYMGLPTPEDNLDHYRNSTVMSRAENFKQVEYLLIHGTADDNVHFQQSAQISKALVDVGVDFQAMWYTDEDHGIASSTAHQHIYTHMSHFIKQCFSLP", "assay": "DPP-IV activity inhibition test in vitro (DPPIV-Glo luminescence)", "type": "biochemical", "details": "DPP-IV, Table 1; read-out: IC50", "protocol": "(1) DPP-IV Activity Inhibition Tests In Vitro\nDPP-IV could hydrolyze Gly-Pro-Aminoluciferin at room temperature to generate Aminoluciferin, which could produce “glow type” luminescent signals in a luciferase reaction system provided by a DPPIV-Glo™ protease test kit, and the strength of the luminescent signals was in direct proportion to the enzyme activity of DPP-IV.\n2.1 humanized recombinant DPP-IV: SIGMA product, article number D3446-10UG.\n2.2 DPPIV-Glo™ protease detection kit: Promega product, article number G8351.\n3.2 Diluting dipeptidyl peptidase IV (Sigma) to 0.2 ng/ml solution with 10 mM Tris-HCl (pH 8.0), adding the samples to be detected in, per well 25 μl. […] Experimental Results"}, "[2]": {"details": "CD-1 mouse, 5 mg/kg, oral administration; cited from earlier work"}, "[3]": {"test_system": "diabetic mice (B6.BKS(D)-Leprdb/JNju)", "assay": "Glucose tolerance test of diabetic mice (Table 5)", "type": "in vivo, mouse", "parameters": "AUC0-120 min: unit not given beside the values", "protocol": "(§1) 2. Experimental method: normal mice, obese mice and diabetic mice were used for studying glucose tolerance tests Experimental process of OGTT (Oral Glucose Tolerance Test): fasting for 6 hours before the test begins, 60 min after drug administration, glucose was administrated by gavage (drug concentration 0.6 mg/ml, administration volume 5 ml/kg) (2 g/kg glucose was administrated to diabetic mice; 2 g/kg glucose was administrated to obese mice; and 5 g/kg glucose was administrated to normal mice), blood glucose values at 0 min, 15 min, 30 min, 45 min, 60 min and 120 min are respectively determined after glucose administration, […]"}, "normal mice (C57BL/6J)": {"test_system": "normal mice (C57BL/6J)", "assay": "Oral glucose tolerance test of normal mice", "type": "in vivo, mouse", "parameters": "AUC0-120 min: unit not given beside the values", "protocol": "as §1"}, "[4]": {"test_system": "obese mice (B6.Cg-Lepob/JNju)", "assay": "Glucose tolerance test of obese mice", "type": "in vivo, mouse", "parameters": "AUC0-120 min: unit not given beside the values", "protocol": "as §1"}, "[5]": {"details": "man, 5 mg/subject; cited from earlier work"}}, "note": "Where a name gives a salt, the structure may show the parent alone. Read-outs that look alike come from different tables or passages of the source. Marks after values point to notes of the source that are not given here.", "data": [{"compound": "CC#CCn1c(N2CCC[C@@H](N)C2)nc2c1c(=O)n(Cc1cc(F)c(F)cc1C#N)c(=O)n2C", "note": "[Compound I-2, 1-[(4,5-difluoro-benzonitrile-2-yl)methyl]-3-methyl-7-(2-butyne-1-yl)-8-[(R)-3-amino-piperidine-1-yl]-xanthine]", "values": [{"measurement": "IC50", "setting": "[1]", "value": 2.1, "unit": "nM"}]}, {"compound": "CC#CCn1c(N2CCC[C@@H](N)C2)nc2c1c(=O)n(Cc1cccc(F)c1C#N)c(=O)n2C", "note": "[Compound I-1, 1-[(6-fluorine-benzonitrile-2-yl)methyl]-3-methyl-7-(2-butyne-1-yl)-8-[(R)-3-amino-piperidine-1-yl]-xanthine]", "values": [{"measurement": "IC50", "setting": "[1]", "value": 0.21, "unit": "nM"}]}, {"compound": "CC#CCn1c(N2CCC[C@@H](N)C2)nc2c1c(=O)n(Cc1ncccc1C(=O)OC)c(=O)n2C", "note": "[Compound I-4, 1-[(3-methyl formate-pyridine-2-yl)methyl]-3-methyl-7-(2-butyne-1-yl)-8-[(R)-3-amino-piperidine-1-yl]-xanthine]", "values": [{"measurement": "IC50", "setting": "[1]", "value": 4.8, "unit": "nM"}]}, {"compound": "CC#CCn1c(N2CCC[C@@H](N)C2)nc2c1c(=O)n(Cc1nc(C)c3ccccc3n1)c(=O)n2C", "note": "[Linagliptin, linagliptin, reference compound]", "values": [{"measurement": "bioavailability (F)", "setting": "[2]", "value": 18.4, "unit": "%"}, {"measurement": "Blood glucose concentration 0 min", "setting": "[3]; diabetic mice B6.BKS(D)-Leprdb/JNju, drug at -60 min (0.6 mg/ml, 5 ml/kg), 2 g/kg glucose at 0 min", "value": 12.09, "unit": "mmol/L"}, {"measurement": "Blood glucose concentration 15 min", "setting": "[3]; diabetic mice, 15 min after glucose", "value": "29.98* mmol/L"}, {"measurement": "Blood glucose concentration 30 min", "setting": "[3]; diabetic mice, 30 min after glucose", "value": "20.15*** mmol/L"}, {"measurement": "Blood glucose concentration 45 min", "setting": "[3]; diabetic mice, 45 min after glucose", "value": "16.60*** mmol/L"}, {"measurement": "Blood glucose concentration 60 min", "setting": "[3]; diabetic mice, 60 min after glucose", "value": "15.83** mmol/L"}, {"measurement": "Blood glucose concentration 120 min", "setting": "[3]; diabetic mice, 120 min after glucose", "value": "10.05* mmol/L"}, {"measurement": "AUC0-120 min", "setting": "[3]; diabetic mice, blood glucose AUC", "value": "1987**"}, {"measurement": "Blood glucose concentration 0 min", "setting": "normal mice (C57BL/6J); normal mice C57BL/6J, drug at -60 min (0.6 mg/ml, 5 ml/kg), 5 g/kg glucose at 0 min", "value": "8.64* mmol/L"}, {"measurement": "Blood glucose concentration 15 min", "setting": "normal mice (C57BL/6J); normal mice, 15 min after glucose", "value": "14.7*** mmol/L"}, {"measurement": "Blood glucose concentration 30 min", "setting": "normal mice (C57BL/6J); normal mice, 30 min after glucose", "value": "10.5*** mmol/L"}, {"measurement": "Blood glucose concentration 45 min", "setting": "normal mice (C57BL/6J); normal mice, 45 min after glucose", "value": "9.5*** mmol/L"}, {"measurement": "Blood glucose concentration 60 min", "setting": "normal mice (C57BL/6J); normal mice, 60 min after glucose", "value": "10.14*** mmol/L"}, {"measurement": "Blood glucose concentration 120 min", "setting": "normal mice (C57BL/6J); normal mice, 120 min after glucose", "value": 7.72, "unit": "mmol/L"}, {"measurement": "AUC0-120 min", "setting": "normal mice (C57BL/6J); normal mice, blood glucose AUC", "value": "1198***"}, {"measurement": "Blood glucose concentration 0 min", "setting": "[4]; obese mice B6.Cg-Lepob/JNju, drug at -60 min (0.6 mg/ml, 5 ml/kg), 2 g/kg glucose at 0 min", "value": 10.95, "unit": "mmol/L"}, {"measurement": "Blood glucose concentration 15 min", "setting": "[4]; obese mice, 15 min after glucose", "value": 31.73, "unit": "mmol/L"}, {"measurement": "Blood glucose concentration 30 min", "setting": "[4]; obese mice, 30 min after glucose", "value": 27.98, "unit": "mmol/L"}, {"measurement": "Blood glucose concentration 45 min", "setting": "[4]; obese mice, 45 min after glucose", "value": 20.50, "unit": "mmol/L"}, {"measurement": "Blood glucose concentration 60 min", "setting": "[4]; obese mice, 60 min after glucose", "value": "16.00* mmol/L"}, {"measurement": "Blood glucose concentration 120 min", "setting": "[4]; obese mice, 120 min after glucose", "value": 11.50, "unit": "mmol/L"}, {"measurement": "AUC0-120 min", "setting": "[4]; obese mice, blood glucose AUC", "value": 2230}, {"measurement": "bioavailability (F)", "setting": "[5]", "value": 30, "unit": "%"}]}]}
